One data set deals with MOLM-13 cells. The experiment in a line: Test 2: inhibition of cell proliferation, MOLM-13. Conditions: 7 days, PrestoBlue cell viability. Format: cell-based. The procedure: (§1) Test 2: Test for Evaluating the Inhibition of Cell Proliferation
(§2) RS4; 11 cells were obtained from American Type Culture Collection (ATCC). The cells were cultured at 37° C. in the presence of 5% CO2 in RPMI 1640 medium containing 10% fetal bovine serum and 1% penicillin/streptomycin. MOLM-13 cells were separately obtained from DSMZ (Deutsche Sammlung von Mikroorganismen und Zellkulturen GmbH). The cells were cultured at 37° C. in the presence of 5% CO2 in RPMI 1640 medium containing […] and 1% penicillin/streptomycin.
(§3) The cells were plated to a 96-well plate in 2000 cells/well, each test compound was added thereto to adjust the final concentration of DMSO to 0.1% of DMSO, and the cells were cultured for 7 days. After the cultivation, the cell viability was calculated with PrestoBlue™ Cell Viability Reagent (Invitrogen, A13261). The IC50 value was calculated from a survival curve, that corresponds to the concentration of the test compound at which the cell proliferation inhibition rate is 50%.

Another data set deals with RS4; 11 cells. The experiment in a line: Test 2: inhibition of cell proliferation, RS4;11. In kind it is cell-based. Conditions: for IC50: RS4;11 cells, 7 days, PrestoBlue cell viability; for cell proliferation inhibition activity, good (in words) / cell proliferation inhibitory activity, potent (in words): summary of Test 2 table, RS4;11 and MOLM-13. The procedure:
as §1, §2, §3

A short description of data set [1]: Test 4: pharmacokinetic study, oral, mouse. Conditions: for AUC(0-t): male, NOD.CB17-Prkdcscid/J, plasma, po, 100 mg/kg; for compound-exposure in plasma (in words): summary of Test 4 table, oral 100 mg/kg.
Protocol: Test 4: Pharmacokinetic Study
The test compound suspended in 0.5% methylcellulose was orally administered to 7-week-old male NOD. CB17-Prkdcscid/J mouse in a dose of 100 mg/kg. The blood sample was taken from jugular vein without anesthesia over time for 24 hours. The blood sample was centrifuged to obtain plasma. The plasma was pre-treated by methanol extraction method, and then analyzed with an LC-MS/MS to determine the concentration of the test compound. Based on the data from 0 hour after the administration until the time (t) when there was the final detection in the plasma, AUC was calculated by trapezoidal method.

On to `C=C1C[C@@H]2CC[C@H]1[C@@H](C(=O)N1CC3(C1)CN(c1c(C(F)(F)F)cnc4sc(CC(F)(F)F)cc14)C3)N2` [Example 17, [(1S,3S,4R)-5-(^2H2)methylidene-2-azabicyclo[2.2.2]octan-3-yl]{6-[2-(2,2,2-trifluoroethyl)-5-(trifluoromethyl)thieno[2,3-b]pyridin-4-yl]-2,6-diazaspiro[3.3]heptan-2-yl}methanone], for which the IC50 in the data set on MOLM-13 cells and with RS4; 11 cells was less than 30 nM each time.
Take `[2H]C([2H])=C1C[C@@H]2CC[C@H]1[C@@H](C(=O)N1CC3(C1)CN(c1c(C(F)(F)F)cnc4sc(CC(F)(F)F)cc14)C3)N2` [Example 17, [(1S,3S,4R)-5-(^2H2)methylidene-2-azabicyclo[2.2.2]octan-3-yl]{6-[2-(2,2,2-trifluoroethyl)-5-(trifluoromethyl)thieno[2,3-b]pyridin-4-yl]-2,6-diazaspiro[3.3]heptan-2-yl}methanone]: in the data set on RS4; 11 cells, the “cell proliferation inhibition activity, good (in words)” value (shortened to “cell proliferation inhibition activity”) was “good cell proliferation inhibition activity” and the “cell proliferation inhibitory activity, potent (in words)” value (“cell proliferation inhibitory activity” below) is “potent cell proliferation inhibitory activity”.
Consider `C=C1C[C@@H]2CC[C@H]1[C@@H](C(=O)N1CCC3(CC1)CN(c1c(C(F)(F)F)cnc4sc(CC(F)(F)F)cc14)C3)N2` [Example 21, [(1S,3S,4R)-5-(^2H2)methylidene-2-azabicyclo[2.2.2]octan-3-yl]{2-[2-(2,2,2-trifluoroethyl)-5-(trifluoromethyl)thieno[2,3-b]pyridin-4-yl]-2,7-diazaspiro[3.5]nonan-7-yl}methanone], for which the half-maximal inhibitory concentration (IC50) in the data set with MOLM-13 cells and in the data set with RS4; 11 cells was less than 30 nM each time.
In turn, `O=C([C@H]1N[C@H]2CC[C@@H]1C[C@@H]2CC1CC1)N1CCC2(CC1)CN(c1c(C(F)(F)F)cnc3sc(CC(F)(F)F)cc13)C2` [Example 22, [(1S,3S,4R,6S)-6-(cyclopropylmethyl)-2-azabicyclo[2.2.2]octan-3-yl]{2-[2-(2,2,2-trifluoroethyl)-5-(trifluoromethyl)thieno[2,3-b]pyridin-4-yl]-2,7-diazaspiro[3.5]nonan-7-yl}methanone] had a half-inhibitory concentration (IC50) with MOLM-13 cells (Homo sapiens, 168 h) of 30 nM. In the data set on RS4; 11 cells (Homo sapiens, 168 h), the IC50 is less than 30 nM. For the same compound, in the data set with RS4; 11 cells, the “cell proliferation inhibition activity” value is recorded as “good cell proliferation inhibition activity” and the “cell proliferation inhibitory activity” value was “potent cell proliferation inhibitory activity”.
In the case of `C=C1C[C@@H]2C[C@H]1[C@@H](C(=O)N1CCC3(CC1)CN(c1c(C(F)(F)F)cnc4sc(CC(F)(F)F)cc14)C3)N2` [Example 23, [(1S,3S,4R)-5-methylidene-2-azabicyclo[2.2.1]heptan-3-yl]{2-[2-(2,2,2-trifluoroethyl)-5-(trifluoromethyl)thieno[2,3-b]pyridin-4-yl]-2,7-diazaspiro[3.5]nonan-7-yl}methanone], the IC50 in the data set on MOLM-13 cells (Homo sapiens, 168 h) was 110 nM; with RS4; 11 cells (Homo sapiens, 168 h), 100 nM.
For the compound `C=C1C[C@@H]2CC[C@H]1[C@@H](C(=O)N1CCC3(CC1)CN(c1c(C#N)cnc4sc(CC(F)(F)F)cc14)C3)N2` [Example 24, 4-{7-[(1S,3S,4R)-5-(^2H2)methylidene-2-azabicyclo[2.2.2]octane-3-carbonyl]-2,7-diazaspiro[3.5]nonan-2-yl}-2-(2,2,2-trifluoroethyl)thieno[2,3-b]pyridine-5-carbonitrile], the concentration for half-maximal inhibition (IC50) in the data set on MOLM-13 cells and with RS4; 11 cells was less than 30 nM each time.
With `N#Cc1cnc2sc(CC(F)(F)F)cc2c1N1CC2(CCN(C(=O)[C@H]3N[C@H]4CC[C@@H]3C[C@@H]4CC3CC3)CC2)C1` [Example 25, 4-{7-[(1S,3S,4R,6S)-6-(cyclopropylmethyl)-2-azabicyclo[2.2.2]octane-3-carbonyl]-2,7-diazaspiro[3.5]nonan-2-yl}-2-(2,2,2-trifluoroethyl)thieno[2,3-b]pyridine-5-carbonitrile], the half-maximal inhibitory concentration (IC50) in the data set with MOLM-13 cells (Homo sapiens, 168 h) is 40 nM. Also, in the data set with RS4; 11 cells (Homo sapiens, 168 h), the IC50 is less than 30 nM. Besides, in the data set with RS4; 11 cells, the “cell proliferation inhibition activity” value is “good cell proliferation inhibition activity” and the “cell proliferation inhibitory activity” value was “potent cell proliferation inhibitory activity”.
For the compound `C=C1C[C@@H]2C[C@H]1[C@@H](C(=O)N1CCC3(CC1)CN(c1c(C#N)cnc4sc(CC(F)(F)F)cc14)C3)N2` [Example 26, 4-{7-[(1S,3S,4R)-5-methylidene-2-azabicyclo[2.2.1]heptane-3-carbonyl]-2,7-diazaspiro[3.5]nonan-2-yl}-2-(2,2,2-trifluoroethyl)thieno[2,3-b]pyridine-5-carbonitrile], the 50% inhibitory concentration (IC50) was determined as 300 nM in the data set with MOLM-13 cells (Homo sapiens, 168 h) and 300 nM with RS4; 11 cells (Homo sapiens, 168 h).
In the data set with MOLM-13 cells (Homo sapiens, 168 h), `C=C1C[C@@H]2CC[C@H]1[C@@H](C(=O)N1CCC3(CC1)CN(c1c(C(F)(F)F)cnc4sc(CC(F)(F)F)cc14)C3)N2` [Example 27, [(1S,3S,4R)-5-Methylidene-2-azabicyclo[2.2.2]octan-3-yl]{2-[2-(2,2,2-trifluoroethyl)-5-(trifluoromethyl)thieno[2,3-b]pyridin-4-yl]-2,7-diazaspiro[3.5]nonan-7-yl}methanone] returned a half-inhibitory concentration (IC50) of 70 nM. Besides, in data set [1], the exposure AUC(0-t) stood at 17300 ng·h/mL and the “compound-exposure in plasma (in words)” value is “good compound-exposure in plasma”. Further, the midpoint of inhibition with RS4; 11 cells (Homo sapiens, 168 h), the IC50, lay at 50 nM. Moreover, in the data set on RS4; 11 cells, the “cell proliferation inhibition activity” value is reported as “good cell proliferation inhibition activity” and the “cell proliferation inhibitory activity” value is on record as “potent cell proliferation inhibitory activity”.
Regarding `C=C1C[C@@H]2CC[C@H]1[C@@H](C(=O)N1CCC3(CC1)CN(c1c(C#N)cnc4sc(CC(F)(F)F)cc14)C3)N2` [Example 28, 4-{7-[(1S,3S,4R)-5-Methylidene-2-azabicyclo[2.2.2]octane-3-carbonyl]-2,7-diazaspiro[3.5]nonan-2-yl}-2-(2,2,2-trifluoroethyl)thieno[2,3-b]pyridine-5-carbonitrile], the IC50 with MOLM-13 cells (Homo sapiens, 168 h) is 60 nM; in the data set with RS4; 11 cells (Homo sapiens, 168 h) it was 70 nM. Besides, the AUC(0-t) in data set [1] came out at 11600 ng·h/mL. Besides, the “compound-exposure in plasma (in words)” value in data set [1] is reported as “good compound-exposure in plasma”.
